Reference: patent EP0279757A1, “Kit for use as an agent for the selective destruction of transformed cells” (priority 1987, dated 1988)

Tests used:
Type in all cases: cell-based
[1] = system: foyers transformés de cellules BALB/c 3T3; assay: Stimulation of gap junction communication by an exogenous compound and its effect on selective elimination
Experimental: L'efficacité d'élimination a également été augmentée par stimulation de la communication des "gap junctions" par un composé exogène : après addition de dibutyryl c-AMP (1mM) dans une boîte de Pétri qui contient des foyers transformés de cellules BALB/c 3T3, on a observé que les communications intercellulaires sont stimulées dans les foyers transformés et dans la monocouche non transformée; cependant, les deux types de cellules ne communiquent pas entre eux.

[2] = system: cellules transformées; assay: Selective destruction of transformed cells by micro-injection into one target cell followed by activation at 400 nm; settings: set of 100 transformed cells, activation at 400 nm for 5 to 10 minutes
Excerpt: Pour être utilisée conformément à l'objectif visé, la susbtance (a) doit être acheminée par toute technique appropriée dans au moins l'une des cellules transformées à détruire, à partir de laquelle elle passe de manière spécifique dans les autres cellules transformées du même site, par l'intermédiaire des "gap junctions". La technique préférée actuellement est la micro-injection, bien connue de l'homme du métier et décrite en détail dans l'article de Cancer Res. cité plus haut.
Dans la pratique, il apparaît avantageux de micro-injecter la substance (a) ou des solutions salines (par exemple en milieu physiologique) de la substance (a), à raison d'un volume pouvant ne pas dépasser environ 10% par rapport au volume de la cellule-cible, par des micro-injections fractionnées et espacées entre elles, par exemple à des intervalles de 10 minutes, ou par une micro-injection en continu.
Il est préférable de respecter une attente entre la dernière micro-injection ou la fin de la micro-injection en continu et l'entrée en fonction du moyen pour l'activation de la susbtance toxique (a), afin que le passage de cette dernière dans l'ensemble des cellules transformées du site traité soit effectif. […]

[3] = system: cellules BALB/c 3T3 transfectées par pEJ-ras-H (cellules transformées); assay: Killing of transformed cells by micro-injection followed by near-UV irradiation (400 nm); settings: micro-injection into transformed cells, irradiation at a frequency close to UV; checked by Trepan blue staining or microscopy
Excerpt: Cet exemple concerne la destruction de cellules transformées, par micro-injection de Lucifer Yellow CH, suivie d'une irradiation à 400 nm.
Pour la production de cellules transformées, on a utilisé des cellules BALB/c 3T3, ce système de transformation assurant la production in situ de cellules transformées sur une couche mono-cellulaire normale, et simule ainsi la cancérogenèse in vivo.
Des cellules BALB/c 3T3 ont été transfectées par un oncogène activé que l'on a isolé d'un carcinome de vessie humaire, le pEJ-ras-H; par cette opération, on a obtenu des cellules transformées. […] Lorsque de nombreuses cellules sont tuées dans un foyer transformé, le foyer entier se décolle du fond de la boîte de Pétri. L'élimination de cellules se vérifie habituellement par coloration au "Trepan blue" mais peut également être confirmée par observation attentive au microscope : ces cellules ne montrent pas de capacité de prolifération; un grand nombre d'entre elles sont décollées.

[4] = system: cellules épithéliales de foie de rat transformées (IAR 27 ou IAR 6-1) et non transformées (IAR 20); assay: Co-culture of transformed and non-transformed cells: micro-injection, dye diffusion and killing after near-UV exposure
Excerpt: On a utilisé aussi des cellules épithéliales de foie de rat transformées et non transformées. Puisqu'à l'heure actuelle, il n'existe pas de mé-thode d'induction in situ de foyer épithélial transformée par des cancé-rogènes, on a cocultivé articifiellement des cellules épithéliales de foie de rat transformées et non transformées, de sorte que les deux types de cellules puissent être en contact. Lorsque les cellules transformées (IAR 27 ou IAR 6-1) sont cultivées avec des cellules non transformées (IAR 20), la frontière entre les deux types de cellules est clairement visible à cause de la différence de leur aspect morphologique.

Molecule | élimination sélective dans les cellules transformées ([1]; 1mM added to the Petri dish, elimination by Lucifer Yellow CH micro-injection and irradiation) | communications intercellulaires ([1]; 1mM added to the Petri dish, in transformed foci and in the non-transformed monolayer, the two cell types do not communicate with each other) | spécificité de communication intercellulaire ([1]; prolonged treatment, transformed phenotypes then began to disappear) | destruction de cellules transformées [2] | élimination sélective des cellules transformées [3] | mort des cellules-cibles ([4]; after exposure to near-UV radiation) | diffusion du colorant ([4]; micro-injection in co-culture of IAR 27 or IAR 6-1 with IAR 20)
CCCC(=O)Nc1ncnc2c1ncn2[C@@H]1O[C@@H]2COP(=O)(O)O[C@H]2[C@H]1OC(=O)CCC [dibutyryl c-AMP] | plus facilement | stimulées | suppression de la spécificité de communication |  |  |  | 
Lucifer Yellow CH |  |  |  | destruction sélective complète | on a pu les tuer | la mort des cellules | diffusion sélective du colorant dans les cellules du même type
